Experimental data as given in ChEMBL document CHEMBL4330132, “5-Keto-3-cyano-2,4-diaminothiophenes as selective maternal embryonic leucine zipper kinase inhibitors” (Bioorg Med Chem Lett, 2019).

Assays:
[1] = target: Tyrosine-protein kinase TXK (Homo sapiens) (UniProt P42681); test: Binding affinity to wild-type human partial length TXK (L238 to W527 residues) expressed in bacterial expression system assessed as residual binding level at 1 uM by Kinomescan method relative to control
[2] = target: Cyclin-dependent kinase 16 (Homo sapiens) (UniProt Q00536); test: Binding affinity to wild-type human partial length PCTK1 (G160 to A474 residues) expressed in mammalian expression system assessed as residual binding level at 1 uM by Kinomescan method relative to control
[3] = target: Serine/threonine-protein kinase DCLK2 (Homo sapiens) (UniProt Q8N568); test: Binding affinity to wild-type human partial length DCAMKL2 (K273 to V664 residues) expressed in bacterial expression system assessed as residual binding level at 1 uM by Kinomescan method relative to control
Sequence of Serine/threonine-protein kinase DCLK2 (Homo sapiens) (Q8N568 whole entry, the tested form may be a part): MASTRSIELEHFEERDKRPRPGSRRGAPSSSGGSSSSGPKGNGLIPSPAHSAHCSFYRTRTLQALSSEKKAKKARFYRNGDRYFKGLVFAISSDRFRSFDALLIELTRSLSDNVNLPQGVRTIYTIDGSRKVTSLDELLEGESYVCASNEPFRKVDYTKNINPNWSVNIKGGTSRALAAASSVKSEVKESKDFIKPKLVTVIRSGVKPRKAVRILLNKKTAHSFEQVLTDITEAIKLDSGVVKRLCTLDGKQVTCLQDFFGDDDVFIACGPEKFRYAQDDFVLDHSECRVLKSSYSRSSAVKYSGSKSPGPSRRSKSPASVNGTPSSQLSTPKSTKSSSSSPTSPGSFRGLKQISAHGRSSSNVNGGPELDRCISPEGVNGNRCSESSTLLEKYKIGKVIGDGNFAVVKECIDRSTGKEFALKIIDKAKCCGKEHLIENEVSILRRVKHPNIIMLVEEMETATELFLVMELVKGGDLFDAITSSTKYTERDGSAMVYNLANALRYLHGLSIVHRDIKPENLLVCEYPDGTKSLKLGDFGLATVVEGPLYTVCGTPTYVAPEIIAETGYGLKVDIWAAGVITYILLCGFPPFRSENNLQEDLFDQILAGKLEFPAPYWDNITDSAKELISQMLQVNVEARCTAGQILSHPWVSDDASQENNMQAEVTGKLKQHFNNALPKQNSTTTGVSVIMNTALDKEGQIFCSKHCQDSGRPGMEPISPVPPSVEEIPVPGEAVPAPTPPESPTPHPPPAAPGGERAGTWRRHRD

[4] = target: Protein kinase C iota type (Homo sapiens) (UniProt P41743); test: Binding affinity to wild-type human partial length PRKCI (H215 to V587 residues) expressed in mammalian expression system assessed as residual binding level at 1 uM by Kinomescan method relative to control
Sequence of Protein kinase C iota type (Homo sapiens) (P41743 whole entry, the tested form may be a part): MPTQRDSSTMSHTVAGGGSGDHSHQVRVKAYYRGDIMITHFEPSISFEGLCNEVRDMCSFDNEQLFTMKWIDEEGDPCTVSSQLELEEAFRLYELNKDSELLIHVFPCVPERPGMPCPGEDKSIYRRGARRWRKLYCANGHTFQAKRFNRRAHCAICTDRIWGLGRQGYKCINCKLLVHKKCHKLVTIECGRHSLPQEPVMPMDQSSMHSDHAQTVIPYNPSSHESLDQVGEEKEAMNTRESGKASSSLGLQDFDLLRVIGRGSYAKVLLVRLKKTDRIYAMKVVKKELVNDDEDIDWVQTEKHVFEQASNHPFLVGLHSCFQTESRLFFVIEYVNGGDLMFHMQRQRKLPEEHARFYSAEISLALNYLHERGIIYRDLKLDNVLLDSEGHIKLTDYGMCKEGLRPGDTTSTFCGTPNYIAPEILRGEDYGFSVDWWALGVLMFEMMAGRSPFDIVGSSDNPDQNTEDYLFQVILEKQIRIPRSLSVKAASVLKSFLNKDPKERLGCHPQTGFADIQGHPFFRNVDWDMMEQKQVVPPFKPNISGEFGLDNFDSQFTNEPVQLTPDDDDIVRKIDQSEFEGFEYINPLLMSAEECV

[5] = target: Wee1-like protein kinase 2 (Homo sapiens) (UniProt P0C1S8); test: Binding affinity to wild-type human partial length WEE2 (M204 to K492 residues) expressed in bacterial expression system assessed as residual binding level at 1 uM by Kinomescan method relative to control
[6] = target: Cyclin-dependent kinase 9 (Homo sapiens) (UniProt P50750); test: Binding affinity to wild-type human full length CDK9 (M1 to F372 residues) expressed in bacterial expression system assessed as residual binding level at 1 uM by Kinomescan method relative to control
Sequence of Cyclin-dependent kinase 9 (Homo sapiens) (P50750 whole entry, the tested form may be a part): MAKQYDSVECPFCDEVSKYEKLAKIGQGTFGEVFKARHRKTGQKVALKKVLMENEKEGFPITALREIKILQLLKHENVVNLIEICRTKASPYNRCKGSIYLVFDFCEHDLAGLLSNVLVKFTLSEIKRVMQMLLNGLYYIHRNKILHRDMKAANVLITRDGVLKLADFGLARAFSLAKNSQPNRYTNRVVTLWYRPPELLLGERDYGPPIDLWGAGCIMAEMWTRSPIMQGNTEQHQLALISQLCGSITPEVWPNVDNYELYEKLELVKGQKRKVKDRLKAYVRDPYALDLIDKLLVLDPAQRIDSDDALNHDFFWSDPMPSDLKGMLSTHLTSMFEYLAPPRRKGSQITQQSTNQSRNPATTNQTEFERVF

[7] = target: Serine/threonine-protein kinase MRCK beta (Homo sapiens) (UniProt Q9Y5S2); test: Binding affinity to wild-type human partial length MRCKB (L56 to S417 residues) expressed in bacterial expression system assessed as residual binding level at 1 uM by Kinomescan method relative to control
[8] = target: Serine/threonine-protein kinase 32C (Homo sapiens) (UniProt Q86UX6); test: Binding affinity to wild-type human partial length YANK3 (M68 to G486 residues) expressed in bacterial expression system assessed as residual binding level at 1 uM by Kinomescan method relative to control
[9] = target: Leucine-rich repeat serine/threonine-protein kinase 2 (Homo sapiens) (UniProt Q5S007); test: Binding affinity to wild-type human partial length LRRK2 (H970 to E2527 residues) expressed in mammalian expression system assessed as residual binding level at 1 uM by Kinomescan method relative to control
[10] = target: Tyrosine-protein kinase SYK (Homo sapiens) (UniProt P43405); test: Binding affinity to wild-type human partial length SYK (D354 to N635 residues) expressed in bacterial expression system assessed as residual binding level at 1 uM by Kinomescan method relative to control
[11] = target: Receptor tyrosine-protein kinase erbB-3 (Homo sapiens) (UniProt P21860); test: Binding affinity to wild-type human partial length ERBB3 (G684 to A987 residues) expressed in mammalian expression system assessed as residual binding level at 1 uM by Kinomescan method relative to control
[12] = test system: Epidermal growth factor receptor (Homo sapiens), P00533 [G719S]; test: Binding affinity to human partial length EGFR G719S mutant (R669 to V1011 residues) expressed in bacterial expression system assessed as residual binding level at 1 uM by Kinomescan method relative to control
[13] = test system: Tyrosine-protein kinase ABL1 (Homo sapiens), P00519 [Y253F]; test: Binding affinity to human phosphorylated ABL1 Y253F mutant (S229 to K512 residues) expressed in mammalian expression system assessed as residual binding level at 1 uM by Kinomescan method relative to control
[14] = test system: Epidermal growth factor receptor (Homo sapiens), P00533 [UNDEFINED MUTATION]; test: Binding affinity to human partial length EGFR L747-T751del/Sins mutant expressed in bacterial expression system assessed as residual binding level at 1 uM by Kinomescan method relative to control
[15] = target: Tyrosine-protein kinase Srms (Homo sapiens) (UniProt Q9H3Y6); test: Binding affinity to wild-type human partial length SRMS (L208 to P488 residues) expressed in mammalian expression system assessed as residual binding level at 1 uM by Kinomescan method relative to control
Sequence of Tyrosine-protein kinase Srms (Homo sapiens) (Q9H3Y6 whole entry, the tested form may be a part): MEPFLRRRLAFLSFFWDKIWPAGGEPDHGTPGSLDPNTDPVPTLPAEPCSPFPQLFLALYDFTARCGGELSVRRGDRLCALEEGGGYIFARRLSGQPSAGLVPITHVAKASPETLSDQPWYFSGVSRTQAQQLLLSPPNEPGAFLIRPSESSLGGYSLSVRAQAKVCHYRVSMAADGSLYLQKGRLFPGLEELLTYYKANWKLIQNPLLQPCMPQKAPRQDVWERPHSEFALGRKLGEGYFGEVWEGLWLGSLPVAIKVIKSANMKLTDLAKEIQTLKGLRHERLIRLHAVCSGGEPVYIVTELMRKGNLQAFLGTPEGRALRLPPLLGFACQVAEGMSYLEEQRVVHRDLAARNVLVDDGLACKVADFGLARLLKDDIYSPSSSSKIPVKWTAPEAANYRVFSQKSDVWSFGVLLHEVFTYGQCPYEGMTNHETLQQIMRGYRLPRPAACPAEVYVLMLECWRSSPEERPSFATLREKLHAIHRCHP

[16] = target: Vascular endothelial growth factor receptor 2 (Homo sapiens) (UniProt P35968); test: Binding affinity to wild-type human partial length VEGFR2 (R787 to P1253 residues) expressed in mammalian expression system assessed as residual binding level at 1 uM by Kinomescan method relative to control
[17] = target: Mitogen-activated protein kinase 9 (Homo sapiens) (UniProt P45984); test: Binding affinity to wild-type human full length JNK2 (M1 to Q382 residues) expressed in mammalian expression system assessed as residual binding level at 1 uM by Kinomescan method relative to control
Sequence of Mitogen-activated protein kinase 9 (Homo sapiens) (P45984 whole entry, looked up, the tested form may be a part): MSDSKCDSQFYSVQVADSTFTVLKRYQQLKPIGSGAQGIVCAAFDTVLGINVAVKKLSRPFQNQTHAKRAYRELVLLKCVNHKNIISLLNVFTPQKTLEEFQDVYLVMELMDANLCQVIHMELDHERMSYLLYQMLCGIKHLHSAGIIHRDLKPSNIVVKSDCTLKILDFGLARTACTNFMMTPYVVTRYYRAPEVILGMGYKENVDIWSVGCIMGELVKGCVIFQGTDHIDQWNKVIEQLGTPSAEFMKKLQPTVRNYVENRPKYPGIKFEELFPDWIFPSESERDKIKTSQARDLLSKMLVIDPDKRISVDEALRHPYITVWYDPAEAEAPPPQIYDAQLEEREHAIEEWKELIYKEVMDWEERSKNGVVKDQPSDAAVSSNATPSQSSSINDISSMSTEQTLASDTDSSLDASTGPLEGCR

[18] = target: Serine/threonine-protein kinase OSR1 (Homo sapiens) (UniProt O95747); test: Binding affinity to wild-type human full length OSR1 (M1 to S527 residues) expressed in mammalian expression system assessed as residual binding level at 1 uM by Kinomescan method relative to control
Sequence of Serine/threonine-protein kinase OSR1 (Homo sapiens) (O95747 2-527 limits assumed): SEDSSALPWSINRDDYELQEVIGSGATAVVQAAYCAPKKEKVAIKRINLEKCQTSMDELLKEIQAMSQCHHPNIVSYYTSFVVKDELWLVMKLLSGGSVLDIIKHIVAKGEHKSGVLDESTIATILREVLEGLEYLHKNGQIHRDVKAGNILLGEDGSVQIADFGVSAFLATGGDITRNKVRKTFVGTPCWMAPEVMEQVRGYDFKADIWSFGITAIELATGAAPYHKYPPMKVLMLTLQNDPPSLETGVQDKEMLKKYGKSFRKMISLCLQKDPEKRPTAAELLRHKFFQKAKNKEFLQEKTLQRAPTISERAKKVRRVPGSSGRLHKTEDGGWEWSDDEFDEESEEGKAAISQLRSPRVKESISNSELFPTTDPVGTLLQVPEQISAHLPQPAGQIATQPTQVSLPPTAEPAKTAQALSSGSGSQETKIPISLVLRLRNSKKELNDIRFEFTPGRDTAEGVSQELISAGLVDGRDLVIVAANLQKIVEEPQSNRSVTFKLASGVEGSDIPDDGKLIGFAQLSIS

[19] = target: Receptor-interacting serine/threonine-protein kinase 4 (Homo sapiens) (UniProt P57078); test: Binding affinity to wild-type human partial length RIPK4 (M1 to V303 residues) expressed in mammalian expression system assessed as residual binding level at 1 uM by Kinomescan method relative to control
Sequence of Receptor-interacting serine/threonine-protein kinase 4 (Homo sapiens) (P57078 whole entry, the tested form may be a part): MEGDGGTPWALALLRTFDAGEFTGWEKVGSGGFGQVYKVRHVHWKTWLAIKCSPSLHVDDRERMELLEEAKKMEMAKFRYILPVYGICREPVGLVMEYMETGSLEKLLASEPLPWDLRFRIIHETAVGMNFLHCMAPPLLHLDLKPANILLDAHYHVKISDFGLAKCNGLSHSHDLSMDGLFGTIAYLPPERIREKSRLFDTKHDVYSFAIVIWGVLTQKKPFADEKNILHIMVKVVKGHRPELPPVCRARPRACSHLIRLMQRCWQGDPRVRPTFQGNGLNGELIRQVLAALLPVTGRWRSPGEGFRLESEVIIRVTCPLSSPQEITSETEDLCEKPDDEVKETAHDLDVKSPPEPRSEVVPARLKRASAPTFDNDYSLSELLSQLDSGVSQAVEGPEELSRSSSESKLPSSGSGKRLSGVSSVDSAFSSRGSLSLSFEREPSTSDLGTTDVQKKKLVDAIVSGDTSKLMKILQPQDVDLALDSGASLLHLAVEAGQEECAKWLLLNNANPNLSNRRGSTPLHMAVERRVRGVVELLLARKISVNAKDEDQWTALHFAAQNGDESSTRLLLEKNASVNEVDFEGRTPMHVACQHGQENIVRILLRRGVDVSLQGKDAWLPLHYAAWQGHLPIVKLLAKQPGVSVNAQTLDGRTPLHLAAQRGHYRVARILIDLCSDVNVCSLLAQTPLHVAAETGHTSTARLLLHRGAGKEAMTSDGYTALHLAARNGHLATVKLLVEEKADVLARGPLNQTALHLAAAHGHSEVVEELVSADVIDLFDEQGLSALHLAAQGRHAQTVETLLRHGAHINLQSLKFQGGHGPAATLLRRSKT

[20] = target: Dual specificity mitogen-activated protein kinase kinase 3 (Homo sapiens) (UniProt P46734); test: Binding affinity to wild-type human full length MEK3 (M1 to S318 residues) expressed in mammalian expression system assessed as residual binding level at 1 uM by Kinomescan method relative to control
[21] = target: Dual specificity tyrosine-phosphorylation-regulated kinase 1A (Homo sapiens) (UniProt Q13627); test: Binding affinity to wild-type human partial length DYRK1A (H129 to S509 residues) expressed in mammalian expression system assessed as residual binding level at 1 uM by Kinomescan method relative to control
[22] = target: Ephrin type-B receptor 3 (Homo sapiens) (UniProt P54753); test: Binding affinity to wild-type human partial length EPHB3 (Q599 to T928 residues) expressed in bacterial expression system assessed as residual binding level at 1 uM by Kinomescan method relative to control
Sequence of Ephrin type-B receptor 3 (Homo sapiens) (P54753 whole entry, the tested form may be a part): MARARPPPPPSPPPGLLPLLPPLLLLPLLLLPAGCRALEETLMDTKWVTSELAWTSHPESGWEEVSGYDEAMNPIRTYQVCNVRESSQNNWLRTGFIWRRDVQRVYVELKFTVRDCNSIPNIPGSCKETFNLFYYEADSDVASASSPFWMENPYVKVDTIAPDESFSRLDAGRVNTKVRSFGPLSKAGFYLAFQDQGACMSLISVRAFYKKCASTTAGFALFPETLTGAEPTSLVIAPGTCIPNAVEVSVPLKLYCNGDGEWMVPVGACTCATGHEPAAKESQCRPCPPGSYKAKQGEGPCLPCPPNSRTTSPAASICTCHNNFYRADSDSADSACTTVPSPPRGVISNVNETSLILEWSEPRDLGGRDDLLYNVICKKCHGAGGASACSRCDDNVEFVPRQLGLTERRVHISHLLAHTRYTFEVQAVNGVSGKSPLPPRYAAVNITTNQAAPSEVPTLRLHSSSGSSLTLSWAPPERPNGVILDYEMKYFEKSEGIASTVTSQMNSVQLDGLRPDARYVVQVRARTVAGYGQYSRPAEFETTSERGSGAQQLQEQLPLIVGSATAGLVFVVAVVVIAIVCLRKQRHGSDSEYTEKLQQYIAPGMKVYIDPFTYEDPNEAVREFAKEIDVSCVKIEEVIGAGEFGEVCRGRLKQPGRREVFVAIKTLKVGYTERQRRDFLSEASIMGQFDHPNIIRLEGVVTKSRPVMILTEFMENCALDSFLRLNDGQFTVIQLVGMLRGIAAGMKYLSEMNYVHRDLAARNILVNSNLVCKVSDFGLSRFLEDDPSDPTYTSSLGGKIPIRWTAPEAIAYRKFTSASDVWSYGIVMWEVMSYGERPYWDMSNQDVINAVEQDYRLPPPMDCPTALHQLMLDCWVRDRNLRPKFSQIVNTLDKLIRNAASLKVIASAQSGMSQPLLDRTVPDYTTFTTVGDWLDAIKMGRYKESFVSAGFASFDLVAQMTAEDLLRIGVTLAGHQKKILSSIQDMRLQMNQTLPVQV

[23] = target: Serine/threonine-protein kinase D3 (Homo sapiens) (UniProt O94806); test: Binding affinity to wild-type human partial length PRKD3 (S543 to E863 residues) expressed in bacterial expression system assessed as residual binding level at 1 uM by Kinomescan method relative to control
[24] = target: Dual specificity protein kinase TTK (Homo sapiens) (UniProt P33981); test: Binding affinity to wild-type human partial length TTK (N505 to V798 residues) expressed in bacterial expression system assessed as residual binding level at 1 uM by Kinomescan method relative to control
[25] = target: Serine/threonine-protein kinase SIK1 (Homo sapiens) (UniProt P57059); test: Binding affinity to wild-type human partial length SIK (M1 to Y304 residues) expressed in bacterial expression system assessed as residual binding level at 1 uM by Kinomescan method relative to control

How did the Activity [1] turn out when `CC(C)Nc1sc(C(=O)c2ccc(Cl)s2)c(N)c1C#N` was run?
The Activity was 87%.

And the Activity [2]?
The Activity was 100%.

What about the Activity [3] of the same molecule?
Its Activity is 100%.

And the Activity [4]?
Its Activity is 100%.

What about the Activity [5] of the same molecule?
Its Activity is 94%.

And the Activity [6]?
Its Activity is 83%.

What about the Activity [7] of the same molecule?
The Activity was 90%.

And the Activity [8]?
The Activity was 82%.

What about the Activity [9] of the same molecule?
The Activity was 81%.

What about the Activity [10] of the same molecule?
The Activity was 91%.

What about the Activity [11] of the same molecule?
Its Activity is 75%.

And the Activity [12]?
The Activity was 96%.

And the Activity [13]?
Its Activity is 100%.

And the Activity [14]?
The Activity was 100%.

What about the Activity [15] of the same molecule?
The Activity was 91%.

And the Activity [16]?
Its Activity is 93%.

What about the Activity [17] of the same molecule?
Its Activity is 100%.

What about the Activity [18] of the same molecule?
Its Activity is 83%.

And the Activity [19]?
Its Activity is 100%.

What about the Activity [20] of the same molecule?
Its Activity is 100%.

What about the Activity [21] of the same molecule?
Its Activity is 100%.

And the Activity [22]?
Its Activity is 94%.

What about the Activity [23] of the same molecule?
The Activity was 62%.

And the Activity [24]?
The Activity was 49%.

What about the Activity [25] of the same molecule?
Its Activity is 100%.
